According to patent US9770195B2, “Automated scratch detection system and signal processing algorithm for the study of pruritus in animals” (The Regents of the University of California, priority 2012, dated 2017):
Entries after “also recorded” stand apart in the source; their conditions may differ. Like-named read-outs stand apart in the source and are kept apart here.

Key:
C57Bl/6 mice [1] = assay: Pruritogen-evoked hind paw scratching counted by the paw motion detector (PMD) in mice; type: in vivo; details: mouse; for scratching behavior evoked by the pruritogen: injection to dorsolateral neck, ipsilateral paw, 60 min; for dose response of scratching: histamine 0.111-11.1 g/mL, chloroquine 0.1-2 mg/mL, 48/80 0.125-0.5 mg/mL
Excerpt: Data acquisition is then initiated. […] The PMD detects the movement of a non-ferrous metal band placed around one hind paw of the rodent (for the mouse the band weight=0.1 g while for the rat the band weight=0.5 g). There are two distinct bands one for the rat and one for the mouse (see the band in Yaksh et al., 2001). The testing apparatus consists of cylindrical chambers (mouse: 8.5 cm diameter/22.5 cm tall; rat: 15 cm diameter/30 cm tall). Under each cylinder is a pair of circular concentric electromagnetic coils, which serve respectively as antennas for transmission and reception. […] The transmitter coil assembly is constructed to emit a 5-8 mW, 6-8 kHz, sinusoidal electromagnetic field (Blue Max 800 Precision scan search coil White's Electronics, Inc., OR). The detection principal is that Eddy currents created by the movements of the ferrous and nonferrous metals perturb the EM field. Such perturbations produce an output waveform and are subsequently detected (Yaksh et al., 2001). The analog signal from the sensing coil assembly is fed into a standard National Instruments based signal acquisition A-D converter system ([…] or PCI-MI0-16Xe-10 National Instruments Corp.) driven into a standard LabView based software (Lab view v.5.1 National Instruments Corporation, Austin, Tex.). The signal is filtered, amplified, and digitized (sampling rate of 1000 Hz, 12-bit resolution). This signal (conditioned signal in FIG. 2) is then entered and passed through a two component-triggering algorithm configured in the Lab view program. In the first phase, the processed signal is sent through an algorithm to establish a scratch movement trigger. In this phase, the processed signal is subjected to a “zero-crossing interval-peak height” analysis based on the signal amplitude in a sliding time window (see Yaksh et al., 2001). The range of voltages (1-0.01 V) over a moving 128-ms interval is configured to produce a continuous output waveform. […] The signal is then smoothed by using a non-weighted moving average filter. The smoothed range waveform is examined in real time by a peak-detection algorithm set to pick out spikes of >500 ms and amplitudes of >0.3 V. Each peak provided a trigger signal, which is represented by a red line on the automated system's display, see FIG. 3. The signal is then processed through a second level algorithm to define bursting. A high frequency scratching burst, which we will now call a microburst, is defined as multiple trigger signals occurring within a specified moving window time frame (e.g. 2 trigger signals within a 1.15 s time frame) without double counting trigger signals. […] Paw movement events meeting the criteria of a scratch microburst are captured and summed at 1-min increments by default (and can be summed from 1 s to 60 min increments). Summed data are stored in Microsoft Excel compatible spreadsheets.

C57Bl/6 mice [2] = details: mouse; for effect on chloroquine (1 mg/mL) evoked scratching: diphenhydramine 1 mg/kg IP
Holtzman rats = assay: SQ 48/80-evoked homolateral scratching in the rat (PMD, Example 2); type: in vivo; details: diphenhydramine 1 mg/kg IP with SQ 48/80
Excerpt: Data acquisition is then initiated.
The PMD detects the movement of a non-ferrous metal band placed around one hind paw of the rodent (for the mouse the band weight=0.1 g while for the rat the band weight=0.5 g). There are two distinct bands one for the rat and one for the mouse (see the band in Yaksh et al., 2001). The testing apparatus consists of cylindrical chambers (mouse: 8.5 cm diameter/22.5 cm tall; rat: 15 cm diameter/30 cm tall). Under each cylinder is a pair of circular concentric electromagnetic coils, which serve respectively as antennas for transmission and reception. Outer coil diameters for the mouse and rat are 12 cm and 20 cm, respectively. The transmitter coil assembly is constructed to emit a 5-8 mW, 6-8 kHz, sinusoidal electromagnetic field (Blue Max 800 Precision scan search coil White's Electronics, Inc., OR). The detection principal is that Eddy currents created by the movements of the ferrous and nonferrous metals perturb the EM field. Such perturbations produce an output waveform and are subsequently detected (Yaksh et al., 2001).

CCN(CC)CCCC(C)Nc1ccnc2cc(Cl)ccc12 (stereo not drawn) [chloroquine]
cumulative macroburst counts, 48/80 vs chloroquine (C57Bl/6 mice [1]; 1 hour, SQ 48/80 0.5 mg/mL vs chloroquine 1 mg/mL, N=5, p<0.001): significantly different
scratching behavior evoked by the pruritogen (C57Bl/6 mice [1]): vigorous scratching; also recorded: significant scratching incidence
average macrobursts (C57Bl/6 mice [1]; over 1 hour after SQ 48/80 0.5 mg/mL or chloroquine 1 mg/mL, N=5, FFT transformed): 8.4
dose response of scratching (C57Bl/6 mice [1]): inverse u shape dose response curve
dose response of scratching (C57Bl/6 mice [1]; listed as Chloroquine): inverse U shaped dose response curve; also recorded: inverse u-shaped dose response curve

CN(C)CCOC(c1ccccc1)c1ccccc1 [diphenhydramine, Diphenhydramine]
effect on scratching produced by 48/80 (C57Bl/6 mice [2]; diphenhydramine 0.1 mg/kg IP, 30 min pretreatment, SQ 48/80 0.5 mg/mL): complete reversal of scratching
effect on chloroquine (1 mg/mL) evoked scratching (C57Bl/6 mice [2]; 30 min pretreatment): lower mean microburst count than those treated with chloroquine alone, but this was not statistically significant
effect on chloroquine (1 mg/mL) evoked scratching (C57Bl/6 mice [2]; 30 min pretreatment, listed as Diphenhydramine): no statistically significant effect
effect on SQ histamine-evoked scratching (C57Bl/6 mice [2]; diphenhydramine, dose not stated): reversed
effect on scratching produced by 48/80 (C57Bl/6 mice [2]; higher doses of diphenhydramine (0.3, 1 mg/kg IP)): suppression of behavior as compared to saline treated animals
effect on 48/80-evoked scratching, across doses (C57Bl/6 mice [2]; increasing doses of IP diphenhydramine): attenuated in an equally dose dependent fashion; also recorded: reversed
effect on 48/80-evoked scratching (Holtzman rats): significant reduction in the observed magnitude of scratching

Cl.Cl.NCCc1c[nH]cn1 [histamine, Histamine dihydrochloride]
scratching behavior evoked by the pruritogen (C57Bl/6 mice [1]): vigorous scratching
dose response of scratching (C57Bl/6 mice [1]; dihydrochloride): robust dose dependent scratching

CCN(CC)CC(=O)Nc1c(C)cccc1C [lidocaine]
effect on histamine-evoked scratching (C57Bl/6 mice [2]; SQ lidocaine 2.5% injected into the site 5 min prior to histamine): blocked the scratching behavior
